Measured values reported in paper PMC4303209, “A novel phosphatidylinositol 3-kinase (PI3K) inhibitor directs a potent FOXO-dependent, p53-independent cell cycle arrest phenotype characterized by the differential induction of a subset of FOXO-regulated genes” (Breast Cancer Research : BCR, 2014).

Test system: MCF-7 breast cancer cells
Assay: Microarray gene expression analysis (Agilent whole human genome 4 x 44K; compound vs DMSO, LIMMA log2 fold change)
Format: cell-based
Conditions: cell cycle genes

Oc1cccc(-c2nc(N3CCOCC3)c3oc4ncccc4c3n2)c1 [PI-103]
MLF1 log2FC (Gene 4291): 0.58
MLH1 log2FC (Gene 4292): 0.34
MAP3K11 log2FC (Gene 4296): -0.58
MNAT1 log2FC (Gene 4331): 0.59
MNT log2FC (Gene 4335): 1.54
MOS log2FC (Gene 4342): -0.08
MRE11A log2FC (Gene 4361): 0.27
MSH2 log2FC (Gene 4436): 0.79
MSH3 log2FC (Gene 4437): 0.54
MSH4 log2FC (Gene 4438): -0.0458
MSX1 log2FC (Gene 4487): -0.24
MSX2 log2FC (Gene 4488): 0.05
MUC1 log2FC (Gene 4582): -0.28
TRIM37 log2FC (Gene 4591): 0.67
MX2 log2FC (Gene 4600): -0.08
MYB log2FC (Gene 4602): 0.51
MYBL2 log2FC (Gene 4605): -0.39
MYC log2FC (Gene 4609): 0.42
GADD45B log2FC (Gene 4616): 0.86
MYH9 log2FC (Gene 4627): -0.23
MYH10 log2FC (Gene 4628): -0.0425
PPP1R12A log2FC (Gene 4659): 0.42
PPP1R12B log2FC (Gene 4660): 0.33
NUBP1 log2FC (Gene 4682): -0.22
NBN log2FC (Gene 4683): 0.62
NEDD9 log2FC (Gene 4739): 0.0368
NEK1 log2FC (Gene 4750): 0.57
NEK2 log2FC (Gene 4751): 1.00
NEUROD1 log2FC (Gene 4760): 0.04
NGFR log2FC (Gene 4804): -0.07
NOTCH2 log2FC (Gene 4853): 0.27
NPAT log2FC (Gene 4863): 0.48
NPM1 log2FC (Gene 4869): 0.28
NUP88 log2FC (Gene 4927): 0.08
ODF2 log2FC (Gene 4957): -0.13
OSM log2FC (Gene 5008): -0.00804
OVOL1 log2FC (Gene 5017): -0.06
PAFAH1B1 log2FC (Gene 5048): 0.72
PAK1 log2FC (Gene 5058): 0.07
PAK3 log2FC (Gene 5063): 0.09
PCM1 log2FC (Gene 5108): 0.63
PCNT log2FC (Gene 5116): 0.45
PDGFB log2FC (Gene 5155): -0.24
PDGFRB log2FC (Gene 5159): 0.0243
PGGT1B log2FC (Gene 5229): -0.28
ABCB1 log2FC (Gene 5243): -0.02
PIK3C3 log2FC (Gene 5289): 1.00
PIM1 log2FC (Gene 5292): 1.29
PIN1 log2FC (Gene 5300): -0.0472
PKD1 log2FC (Gene 5310): 0.37
PKD2 log2FC (Gene 5311): 0.13
PKHD1 log2FC (Gene 5314): -0.09
PLAGL1 log2FC (Gene 5325): 0.32
PML log2FC (Gene 5371): -0.41
PMS1 log2FC (Gene 5378): 0.55
PMS2 log2FC (Gene 5395): 0.12
POLD1 log2FC (Gene 5424): 0.33
POLE log2FC (Gene 5426): -0.10
PPAT log2FC (Gene 5471): 0.07
PPM1A log2FC (Gene 5494): 0.27
PPP1CB log2FC (Gene 5500): 0.81
PPP1CC log2FC (Gene 5501): 0.33
PPP2R1A log2FC (Gene 5518): 0.06
PPP2R2A log2FC (Gene 5520): -0.06
PPP2R4 log2FC (Gene 5524): -0.32
PPP2R5C log2FC (Gene 5527): 0.78
PPP3CA log2FC (Gene 5530): 0.45
PPP5C log2FC (Gene 5536): -0.24
PPP6C log2FC (Gene 5537): -0.35
PRCC log2FC (Gene 5546): -0.66
PRIM1 log2FC (Gene 5557): 0.46
PRKAA1 log2FC (Gene 5562): 0.30
PRKAA2 log2FC (Gene 5563): 0.07
PRKAB1 log2FC (Gene 5564): 0.25
PRKAB2 log2FC (Gene 5565): 0.81
PRKACA log2FC (Gene 5566): -0.35
PKIA log2FC (Gene 5569): -0.29
PRKAG1 log2FC (Gene 5571): 0.09
PRKAR1A log2FC (Gene 5573): 0.45
PRKAR2B log2FC (Gene 5577): 0.43
PRKCA log2FC (Gene 5578): -0.16
PRKCD log2FC (Gene 5580): 0.12
PRKCE log2FC (Gene 5581): -0.00329
PKN2 log2FC (Gene 5586): 0.51
MAPK1 log2FC (Gene 5594): 0.0165
MAPK3 log2FC (Gene 5595): -0.12
MAPK13 log2FC (Gene 5603): -0.17
MAP2K1 log2FC (Gene 5604): -0.23
MAP2K6 log2FC (Gene 5608): 0.36
PROX1 log2FC (Gene 5629): -0.08
KLK10 log2FC (Gene 5655): -0.42
PSMA1 log2FC (Gene 5682): -0.03
PSMA4 log2FC (Gene 5685): 0.47
PSMA6 log2FC (Gene 5687): 0.07
PSMB1 log2FC (Gene 5689): 0.00908
PSMB2 log2FC (Gene 5690): -0.43
PSMB3 log2FC (Gene 5691): 0.0534
PSMB5 log2FC (Gene 5693): -0.22
PSMB6 log2FC (Gene 5694): -0.08
PSMB8 log2FC (Gene 5696): -0.00568
PSMC1 log2FC (Gene 5700): -0.00867
PSMC2 log2FC (Gene 5701): 0.28
PSMC5 log2FC (Gene 5705): -0.31
PSMC6 log2FC (Gene 5706): 0.52
PSMD2 log2FC (Gene 5708): 0.00374
PSMD3 log2FC (Gene 5709): -0.0745
PSMD4 log2FC (Gene 5710): -0.0364
PSMD5 log2FC (Gene 5711): 0.19
PSMD7 log2FC (Gene 5713): 0.00364
PSMD9 log2FC (Gene 5715): -0.40
PSMD12 log2FC (Gene 5718): -0.77
PSMD13 log2FC (Gene 5719): -0.17
PSME2 log2FC (Gene 5721): 0.04
PTEN log2FC (Gene 5728): 0.96
PTGS2 log2FC (Gene 5743): -0.0533
PTPN3 log2FC (Gene 5774): -0.31
PTPN6 log2FC (Gene 5777): 0.26
PTPRC log2FC (Gene 5788): -0.0261
PTPRK log2FC (Gene 5796): 0.72
RAD1 log2FC (Gene 5810): -0.29
RAD9A log2FC (Gene 5883): 0.68
RAD17 log2FC (Gene 5884): 1.15
RAD21 log2FC (Gene 5885): 0.83
RAD51 log2FC (Gene 5888): -0.29
RAD52 log2FC (Gene 5893): 0.14
RAN log2FC (Gene 5901): -0.14
RANBP1 log2FC (Gene 5902): -0.10
RANBP2 log2FC (Gene 5903): 0.42
RARA log2FC (Gene 5914): -0.31
RASA1 log2FC (Gene 5921): 0.47
RB1 log2FC (Gene 5925): 0.67
RBL2 log2FC (Gene 5934): 0.41
RFC1 log2FC (Gene 5981): 1.04
RFC2 log2FC (Gene 5982): -0.10
RFC5 log2FC (Gene 5985): 0.15
RGS2 log2FC (Gene 5997): -2.43
RHEB log2FC (Gene 6009): 0.40
RNF2 log2FC (Gene 6045): -0.11
RNF4 log2FC (Gene 6047): -0.48
RPA3 log2FC (Gene 6119): 0.23
RPS6KA2 log2FC (Gene 6196): 0.19
RPS6KA3 log2FC (Gene 6197): 0.27
RPS15A log2FC (Gene 6210): 0.48
RPS27 log2FC (Gene 6232): 0.35
RPS27A log2FC (Gene 6233): 0.45
RRM1 log2FC (Gene 6240): 0.36
RRM2 log2FC (Gene 6241): -0.81
SETMAR log2FC (Gene 6419): -0.16
SIAH2 log2FC (Gene 6478): -0.48
SKP2 log2FC (Gene 6502): -1.28
SMARCA4 log2FC (Gene 6597): -0.39
SOX2 log2FC (Gene 6657): 0.23
SOX9 log2FC (Gene 6662): -2.01
SPAST log2FC (Gene 6683): 0.37
SPTBN1 log2FC (Gene 6711): 0.11
SRPK2 log2FC (Gene 6733): 0.78
TRIM21 log2FC (Gene 6737): 0.02
